Earlier results on two compounds are cited in paper PMC6545338, “Novel chemical starting points for drug discovery in leishmaniasis and Chagas disease” (International Journal for Parasitology: Drugs and Drug …, 2019).

This data set deals with T. cruzi. Also on record: method as in Morillo et al., 2017a. Particulars: ref Morillo et al., 2017a; for Efficacy in the STOP-CHAGAS trial: patients.

As to `O=C(Cn1ccnc1[N+](=O)[O-])NCc1ccccc1` [benznidazole], the “Efficacy in the STOP-CHAGAS trial” value is 62%. For the same compound, the “Patients who had to permanently discontinue treatment due to side effects” value (benznidazole-treated group) is recorded as 32%.

Consider `CC[C@@H]([C@H](C)O)n1ncn(-c2ccc(N3CCN(c4ccc(OC[C@@H]5CO[C@@](Cn6cncn6)(c6ccc(F)cc6F)C5)cc4)CC3)cc2)c1=O` [posaconazole], for which the “Efficacy in the STOP-CHAGAS trial” value is listed as 19%.
